# From ChEMBL document CHEMBL2074010, “Transport function and hepatocellular localization of mrp6 in rat liver” (Mol Pharmacol, 2000)
# Biological target: ATP-binding cassette sub-family C member 2 (Rattus norvegicus, UniProt Q63120)
# Assay: TP_TRANSPORTER: uptake in membrane vesicles from Mrp2-expressing Sf9 cells
# Format: functional, cell membranes, Membrane vesicle
# Sequence of ATP-binding cassette sub-family C member 2 (Q63120 whole entry): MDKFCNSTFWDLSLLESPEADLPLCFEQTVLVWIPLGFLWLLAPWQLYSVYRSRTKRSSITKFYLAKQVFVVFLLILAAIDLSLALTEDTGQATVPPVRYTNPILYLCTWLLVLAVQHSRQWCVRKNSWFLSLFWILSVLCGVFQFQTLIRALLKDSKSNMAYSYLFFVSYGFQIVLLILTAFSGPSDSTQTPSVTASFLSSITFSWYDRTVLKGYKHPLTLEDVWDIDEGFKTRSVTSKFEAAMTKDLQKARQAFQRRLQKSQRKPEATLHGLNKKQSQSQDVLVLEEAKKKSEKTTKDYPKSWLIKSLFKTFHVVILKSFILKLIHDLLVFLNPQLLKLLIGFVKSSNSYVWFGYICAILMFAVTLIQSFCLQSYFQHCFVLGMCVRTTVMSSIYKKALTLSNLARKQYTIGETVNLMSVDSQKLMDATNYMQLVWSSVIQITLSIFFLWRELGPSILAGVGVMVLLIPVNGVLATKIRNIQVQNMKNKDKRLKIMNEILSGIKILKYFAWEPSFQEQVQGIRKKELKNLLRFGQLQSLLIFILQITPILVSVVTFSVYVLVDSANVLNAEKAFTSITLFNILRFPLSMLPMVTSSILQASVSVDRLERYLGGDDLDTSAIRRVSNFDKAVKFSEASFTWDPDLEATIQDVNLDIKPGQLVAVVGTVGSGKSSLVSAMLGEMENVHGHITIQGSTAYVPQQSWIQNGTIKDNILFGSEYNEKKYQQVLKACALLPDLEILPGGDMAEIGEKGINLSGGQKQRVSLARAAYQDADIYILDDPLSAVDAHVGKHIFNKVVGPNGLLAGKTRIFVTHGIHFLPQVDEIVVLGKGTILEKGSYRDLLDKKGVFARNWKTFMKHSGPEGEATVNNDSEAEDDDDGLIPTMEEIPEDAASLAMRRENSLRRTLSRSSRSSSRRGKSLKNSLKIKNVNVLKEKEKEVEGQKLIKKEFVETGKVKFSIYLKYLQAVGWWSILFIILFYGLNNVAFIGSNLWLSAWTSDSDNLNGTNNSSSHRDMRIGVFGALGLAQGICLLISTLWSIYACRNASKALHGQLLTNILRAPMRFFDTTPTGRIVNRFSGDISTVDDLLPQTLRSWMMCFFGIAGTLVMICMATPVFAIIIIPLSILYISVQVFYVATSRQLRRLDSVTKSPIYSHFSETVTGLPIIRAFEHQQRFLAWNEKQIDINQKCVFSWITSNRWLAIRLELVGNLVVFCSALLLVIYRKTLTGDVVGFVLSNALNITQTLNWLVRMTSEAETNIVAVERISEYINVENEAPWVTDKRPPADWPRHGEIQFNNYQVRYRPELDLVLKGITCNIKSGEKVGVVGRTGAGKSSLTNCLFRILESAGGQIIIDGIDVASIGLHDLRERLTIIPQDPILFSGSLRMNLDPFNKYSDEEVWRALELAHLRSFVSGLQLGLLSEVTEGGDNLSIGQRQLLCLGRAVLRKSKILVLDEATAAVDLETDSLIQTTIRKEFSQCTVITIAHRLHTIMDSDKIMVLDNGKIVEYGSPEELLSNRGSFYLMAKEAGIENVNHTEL
row,SMILES,Activity
1,N[C@@H](CCC(=O)N[C@H](CSc1ccc([N+](=O)[O-])cc1[N+](=O)[O-])C(=O)NCC(=O)O)C(=O)O,is not a substrate [-]
2,CC[C@H](C)[C@H](NC(=O)[C@H](CC(=O)O)NC(=O)[C@H](CC(C)C)NC(=O)[C@H](Cc1cnc[nH]1)NC(=O)[C@@H]1CSSC[C@H](N)C(=O)N[C@@H](CO)C(=O)N[C@H]2CSSC[C@H](NC(=O)[C@H](CCC(=O)O)NC(=O)[C@H](CCCCN)NC(=O)[C@H](CC(=O)O)NC(=O)[C@H](CCSC)NC(=O)[C@H](CC(C)C)NC(=O)[C@H](CO)NC(=O)[C@H](CO)NC2=O)C(=O)N[C@@H](C(C)C)C(=O)N[C@@H](Cc2ccc(O)cc2)C(=O)N[C@@H](Cc2ccccc2)C(=O)N1)C(=O)N[C@H](C(=O)N[C@@H](Cc1c[nH]c2ccccc12)C(=O)O)[C@@H](C)CC [ENDOTHELIN],substrate [+]
3,C[C@]12CC[C@@H]3c4ccc(O)cc4CC[C@H]3[C@@H]1CC[C@@H]2O[C@@H]1O[C@H](C(=O)O)[C@@H](O)[C@H](O)[C@H]1O [ESTRADIOL 17B GLUCURONIDE],is not a substrate [-]
4,CCCCC/C=C\C\C=C/C=C/C=C/[C@@H](SC[C@@H](NC(=O)CC[C@H](N)C(=O)O)C(=O)NCC(=O)O)[C@@H](O)CCCC(=O)O [LEUKOTRIEN C4],is not a substrate [-]
